From patent US20220323411A1, “COMPOSITIONS FOR THE TREATMENT OF SOLID TUMORS” (Raziel Therapeutics Ltd., priority 2019, published 2022) come the findings set out here.

Data set [1] relates to A549 cells. Description: Xenograft Study 1: A549 subcutaneous tumors in nude mice, intratumoral injection. It is filed as in vivo. The note with it: for Tumor volume 3 weeks after injection (mm^3 ± S.E.M.): first dose day 25, double dose day 32, mean, N=10, initial volume 496; for Reduction in tumor volume vs. vehicle (%): 3 weeks after injection. The procedure:
A549 cells were injected subcutaneously to nude mice and allowed to grow to an estimated tumor volume of about 500 mm^3 as determined by caliper. The mice were divided into four groups (N=10 per group), dosed twice via intratumoral injection with either a vehicle (comprising water for injection, benzyl alcohol, propylene glycol, and Tween-80) or with 1 mg, 2.5 mg, or 5 mg of 5-(3, 6-dibromo-9H-carbazol-9-yl)-N,N,N-trimethylpentan-1-aminium chloride according to the experimental design shown in Table 1 below:
For three weeks post-injection, tumor size was determined by caliper and tumor volume was calculated. Mean tumor volumes for the various cohorts are summarized in Table 2 below and graphically in FIG. 1 (arrows indicate treatment days), while the mice's change in body weight is summarized in FIG. 2.

The subject of data set [2] is A549 cells. Nature of the data set: Xenograft Study 2: A549 subcutaneous tumors in nude mice, intratumoral injection. It is filed as in vivo. The procedure:
A549 cells were injected subcutaneously to nude mice and allowed to grow to an estimated tumor volume of about 300 mm^3 as determined by caliper. The mice were divided into three groups (N=10 per group), dosed three times via intratumoral injection with either a vehicle (comprising water for injection, benzyl alcohol, propylene glycol, and Tween-80) or with 5 mg of […])-N,N,N-trimethylpentan-1-aminium chloride, or not injected at all, according to the experimental design shown in Table 3 below:
For three weeks post-injection, tumor size was determined by caliper and tumor volume was calculated. Median tumor volumes for the various cohorts are summarized in Table 4 below and graphically in FIG. 3 (arrows indicate treatment days), while the mice's change in body weight is summarized in FIG. 4.

Setting [3] is: 5 mg intratumoral, dosed three times.

Marks after values point to notes of the source that are not given here.

Take `C[N+](C)(C)CCCCCn1c2ccc(Br)cc2c2cc(Br)ccc21` [Test Compound, 5-(3,6-dibromo-9H-carbazol-9-yl)-N,N,N-trimethylpentan-1-aminium chloride]: the “Tumor volume 3 weeks after injection (mm^3 ± S.E.M.)” value in the data set on A549 cells [1] (1 mg/mouse intratumoral) was 1753 (±80) mm^3; with A549 cells [1] (2.5 mg/mouse intratumoral), 1512 (±149) mm^3; in the data set with A549 cells [1] (5 mg/mouse intratumoral), 1309 (±229) mm^3. Also, the “Reduction in tumor volume vs. vehicle (%)” value was 7.7% in the data set on A549 cells [1] (1 mg/mouse intratumoral, P-value vs. vehicle 0.86); 20.4% in the data set on A549 cells [1] (2.5 mg/mouse intratumoral, P-value vs. vehicle 0.17); 31.1* % with A549 cells [1] (5 mg/mouse intratumoral, P-value vs. vehicle 0.03). Besides, the “Effect on mouse body weight” value with A549 cells [1] (5 mg intratumoral, dosed twice) is on record as “did not affect mouse body weight”; in the data set on A549 cells [2] (setting [3]), “did not affect mouse body weight”. The “Effect on tumor size” value is “significantly reduced tumor size” in the data set with A549 cells [1] (5 mg intratumoral, dosed twice) and “significantly reduced tumor size” with A549 cells [2] (setting [3]). Besides, in the data set on A549 cells [2] (5 mg/mouse intratumoral once a week for 3 weeks, P-value vs. non-injected group 0.02), the “Reduction in tumor volume vs. non-injected group (%)” value is given as 46* %. For the same compound, the Tumor volume 3 weeks after injection (median) with A549 cells [2] (5 mg/mouse intratumoral once a week for 3 weeks, median, N=10, initial volume 287) was determined as 648 mm³.
